Laboratory results from ChEMBL document CHEMBL1154771, “Discovery of the first series of small molecule H5N1 entry inhibitors” (J Med Chem, 2009).

Key:
Type in all cases: cell-based
[1] = Inhibition of Influenza A virus (A/Viet Nam/1203/2004(H5N1)) hemagglutininin-mediated viral entry into human A549 cells assessed as luciferase activity after 48 hrs postinfection by luminometry
A549 [2] = experiment: Inhibition of Influenza A virus (A/Viet Nam/1203/2004(H5N1)) hemagglutininin-mediated viral entry into human A549 cells assessed as infectivity at 10 uM after 48 hrs postinfection by luciferase assay relative to control; design: scale not given: the % may be the effect or the level left
[3] = Inhibition of Influenza A virus (A/Bar-headed Goose/Qinghai/59/05(H5N1)) hemagglutininin-mediated viral entry into human A549 cells assessed as luciferase activity after 48 hrs postinfection by luminometry
A549 [4] = experiment: Inhibition of Influenza A virus (A/Bar-headed Goose/Qinghai/59/05(H5N1)) hemagglutininin-mediated viral entry into human A549 cells assessed as infectivity at 10 uM after 48 hrs postinfection by luciferase assay relative to control; design: scale not given: the % may be the effect or the level left
A549 [5] = experiment: Inhibition of Vesicular stomatitis virus envelope glycoprotein-mediated viral entry into human A549 cells assessed as infectivity at 10 uM after 48 hrs postinfection by luciferase assay relative to control; design: scale not given: the % may be the effect or the level left

C[C@@H]1CC[C@@]2(OC1)O[C@H]1C[C@H]3[C@@H]4C[C@H](O)[C@H]5C[C@@H](O[C@@H]6O[C@H](CO)[C@@H](O[C@@H]7O[C@@H](C)[C@H](O)[C@@H](O)[C@H]7O)[C@H](O)[C@H]6O[C@@H]6O[C@@H](C)[C@H](O)[C@@H](O)[C@H]6O)CC[C@]5(C)[C@H]4CC[C@]3(C)[C@H]1[C@@H]2C
IC50 [1]: 7.84 µM
Activity (A549 [2]): 36.3%
IC50 [3]: 7.22 µM
Activity (A549 [4]): 42.6%
Activity (A549 [5]): 111%

C[C@@H](CO)CC[C@H]1O[C@H]2C[C@H]3[C@@H]4C[C@H](O)[C@H]5C[C@@H](O[C@@H]6O[C@H](CO)[C@@H](O[C@@H]7O[C@@H](C)[C@H](O)[C@@H](O)[C@H]7O)[C@H](O)[C@H]6O[C@@H]6O[C@@H](C)[C@H](O)[C@@H](O)[C@H]6O)CC[C@]5(C)[C@H]4CC[C@]3(C)[C@H]2[C@@H]1C
Activity (A549 [2]): 102%
Activity (A549 [4]): 97.9%
Activity (A549 [5]): 111%

C[C@@H]1CC[C@@]2(OC1)O[C@H]1C[C@H]3[C@@H]4C[C@H](O)[C@H]5C[C@@H](O[C@@H]6O[C@H](CO)[C@@H](O[C@@H]7O[C@@H](C)[C@H](O)[C@@H](O)[C@H]7O)[C@H](O)[C@H]6O)CC[C@]5(C)[C@H]4CC[C@]3(C)[C@H]1[C@@H]2C
Activity (A549 [2]): 87.4%
Activity (A549 [4]): 98.2%
Activity (A549 [5]): 117%

C[C@@H]1O[C@@H](O[C@H]2[C@H](O[C@H]3CC[C@@]4(C)C(=CC[C@@H]5[C@@H]4CC[C@]4(C)C(=O)CC[C@@H]54)C3)O[C@H](CO)[C@@H](O[C@@H]3O[C@@H](C)[C@H](O)[C@@H](O)[C@H]3O)[C@@H]2O)[C@H](O)[C@H](O)[C@H]1O
Activity (A549 [2]): 106%
Activity (A549 [4]): 108%
Activity (A549 [5]): 100%

COC(=O)[C@]12CCC(C)(C)C[C@H]1C1=CC[C@@H]3[C@@]4(C)CC[C@H](O[C@@H]5O[C@H](CO)[C@@H](O[C@@H]6O[C@@H](C)[C@H](O)[C@@H](O)[C@H]6O)[C@H](O)[C@H]5O[C@@H]5O[C@@H](C)[C@H](O)[C@@H](O)[C@H]5O)C(C)(C)[C@@H]4CC[C@@]3(C)[C@]1(C)CC2
Activity (A549 [2]): 17.5%
Activity (A549 [4]): 35.3%
Activity (A549 [5]): 48.4%

COC(=O)[C@]12CC[C@@H](C)[C@H](C)[C@H]1C1=CC[C@@H]3[C@@]4(C)CC[C@H](O[C@@H]5O[C@H](CO)[C@@H](O[C@@H]6O[C@@H](C)[C@H](O)[C@@H](O)[C@H]6O)[C@H](O)[C@H]5O[C@@H]5O[C@@H](C)[C@H](O)[C@@H](O)[C@H]5O)C(C)(C)[C@@H]4CC[C@@]3(C)[C@]1(C)CC2
IC50 [1]: 8.54 µM
Activity (A549 [2]): 43.3%
IC50 [3]: 6 µM
Activity (A549 [4]): 37.7%
Activity (A549 [5]): 86%

CCC(/C=C/[C@@H](C)[C@H]1CC[C@H]2[C@@H]3CC=C4C[C@@H](O[C@@H]5O[C@H](CO)[C@@H](O[C@@H]6O[C@@H](C)[C@H](O)[C@@H](O)[C@H]6O)[C@H](O)[C@H]5O[C@@H]5O[C@@H](C)[C@H](O)[C@@H](O)[C@H]5O)CC[C@]4(C)[C@H]3CC[C@]12C)C(C)C (stereo partly specified)
Activity (A549 [2]): 64.6%
Activity (A549 [4]): 73.6%
Activity (A549 [5]): 76.2%

CC(=O)O[C@H]1C[C@@H]2[C@H](CC[C@]3(C)[C@@H]4[C@H](C[C@@H]23)O[C@]2(CC[C@@H](C)CO2)[C@H]4C)[C@@]2(C)CC[C@H](O[C@@H]3O[C@H](CO)[C@@H](O[C@@H]4O[C@@H](C)[C@H](O)[C@@H](O)[C@H]4O)[C@H](O)[C@H]3O[C@@H]3O[C@@H](C)[C@H](O)[C@@H](O)[C@H]3O)C[C@H]12
IC50 [1]: 9.25 µM
Activity (A549 [2]): 46.6%
IC50 [3]: 7.58 µM
Activity (A549 [4]): 50.4%
Activity (A549 [5]): 101%

C[C@@H]1CC[C@@]2(OC1)O[C@H]1C[C@H]3[C@@H]4C[C@H](O)[C@H]5C[C@@H](O[C@@H]6O[C@H](CO)[C@@H](O)[C@H](O)[C@H]6O[C@@H]6O[C@@H](C)[C@H](O)[C@@H](O)[C@H]6O)CC[C@]5(C)[C@H]4CC[C@]3(C)[C@H]1[C@@H]2C
Activity (A549 [2]): 57.9%
Activity (A549 [4]): 61%
Activity (A549 [5]): 122%

Cc1cn([C@H]2C[C@H](N=[N+]=[N-])[C@@H](CO)O2)c(=O)[nH]c1=O [ZIDOVUDINE]
IC50 [1]: 0.011 µM
IC50 [3]: 0.012 µM
Activity (A549 [5]): 0.015%
